Source: ChEMBL document CHEMBL1151879, “Discovery of novel benzene 1,3-dicarboxylic acid inhibitors of bacterial MurD and MurE ligases by structure-based virtual screening approach” (Bioorg Med Chem Lett, 2009)

What was measured:
[1] = Inhibition of Escherichia coli MurD
[2] = Inhibition of MurE assessed as residual activity
Staphylococcus aureus = assay: Antibacterial activity against Staphylococcus aureus ATCC 29213; assay type: functional
Enterococcus faecalis = assay: Antibacterial activity against Enterococcus faecalis ATCC 29212; assay type: functional
Escherichia coli [3] = assay: Antibacterial activity against Escherichia coli ATCC 25922; assay type: functional
Pseudomonas aeruginosa = assay: Antibacterial activity against Pseudomonas aeruginosa ATCC 27853; assay type: functional
Escherichia coli [4] = assay: Inhibition of Escherichia coli MurD assessed as residual activity at 100 uM after 15 mins by malachite green assay
[5] = Inhibition of Escherichia coli MurE after 15 mins by malachite green assay
[6] = Inhibition of MurD
Escherichia coli [7] = assay: Inhibition of Escherichia coli MurE assessed as residual activity at 250 uM after 15 mins by malachite green assay
Escherichia coli [8] = assay: Inhibition of Escherichia coli MurD assessed as residual activity at 250 uM after 15 mins by malachite green assay
Escherichia coli [9] = assay: Inhibition of Escherichia coli MurE assessed as residual activity at 100 uM after 15 mins by malachite green assay
[10] = Inhibition of Escherichia coli MurD after 15 mins by malachite green assay

C[C@@H](NS(=O)(=O)Cc1ccc([N+](=O)[O-])cc1)C(=O)N[C@H](C)P(=O)(O)C[C@@H](CC(=O)O)C(=O)O
IC50 [1]: 78 µM
Activity [2]: 8%

O=C(O)CC[C@@H](NC(=O)c1ccc(CNc2ccc(/C=C3\SC(=S)NC3=O)cc2)cc1)C(=O)O
MBC (Staphylococcus aureus): > 128 µg/mL
MIC (Staphylococcus aureus): > 128 µg/mL
MBC (Enterococcus faecalis): > 128 µg/mL
MIC (Enterococcus faecalis): > 128 µg/mL
MBC (Escherichia coli [3]): > 128 µg/mL
MIC (Escherichia coli [3]): > 128 µg/mL
MBC (Pseudomonas aeruginosa): > 128 µg/mL
MIC (Pseudomonas aeruginosa): > 128 µg/mL

C[C@@H](NC(=O)/C=C/c1ccc2c(c1)OCO2)P(=O)(O)C[C@H](CCC(=O)O)C(=O)O
IC50 [1]: 95 µM

N#Cc1ccc(COc2ccc3cc(S(=O)(=O)N[C@H](CCC(=O)O)C(=O)O)ccc3c2)cc1
IC50 [1]: 134 µM

O=C(O)CC[C@@H](NC(=O)c1ccc(/C=C2\SC(=S)NC2=O)cc1)C(=O)O
MBC (Staphylococcus aureus): > 128 µg/mL
MIC (Staphylococcus aureus): > 128 µg/mL
MBC (Enterococcus faecalis): > 128 µg/mL
MIC (Enterococcus faecalis): > 128 µg/mL
MBC (Escherichia coli [3]): > 128 µg/mL
MIC (Escherichia coli [3]): > 128 µg/mL
MBC (Pseudomonas aeruginosa): > 128 µg/mL
MIC (Pseudomonas aeruginosa): > 128 µg/mL

Cc1cc(/C=C2/C(=O)NC(=S)N(c3cccc(Cl)c3)C2=O)c(C)n1-c1cc(C(=O)O)cc(C(=O)O)c1
Activity (Escherichia coli [4]): 90%
IC50 [5]: 104 µM

CCCCOc1ccc2cc(S(=O)(=O)N[C@H](CCC(=O)O)C(=O)O)ccc2c1
IC50 [6]: 276 µM

Cc1cc(/C=C2/C(=O)NC(=S)N(c3cccc(Cl)c3Cl)C2=O)c(C)n1-c1cc(C(=O)O)cc(C(=O)O)c1
Activity (Escherichia coli [4]): 83%
IC50 [5]: 79 µM

O=C(O)CC[C@H](NS(=O)(=O)c1ccc2cc(O)ccc2c1)C(=O)O
IC50 [1]: 90 µM

CCOC(=O)COc1ccc2cc(S(=O)(=O)N[C@H](CCC(=O)O)C(=O)O)ccc2c1
IC50 [1]: 192 µM

O=C(O)c1cc(C(=O)O)cc(-c2ccc(/C=C3/SC(=S)N(NC(=O)c4cccs4)C3=O)o2)c1
Activity (Escherichia coli [7]): 81%
Activity (Escherichia coli [8]): 82%

COc1cccc(/C=C2\SC(=S)N(C(CCC(=O)O)C(=O)O)C2=O)c1 (stereo not drawn)
Activity (Escherichia coli [9]): 89%
Activity (Escherichia coli [4]): 98%

CCOc1ccc2nc(SCC(=O)Nc3cc(C(=O)O)cc(C(=O)O)c3)sc2c1
Activity (Escherichia coli [9]): 84%
Activity (Escherichia coli [4]): 98%

O=C(O)CCC(C(=O)O)N1C(=O)/C(=C/c2ccc(-c3ccc([N+](=O)[O-])cc3)o2)SC1=S (stereo not drawn)
Activity (Escherichia coli [4]): 74%
IC50 [5]: 61 µM

Cc1cc(/C=C2/C(=O)NC(=S)N(c3ccc(Cl)cc3)C2=O)c(C)n1-c1cc(C(=O)O)cc(C(=O)O)c1
Activity (Escherichia coli [4]): 69%
IC50 [5]: 97 µM

CCCCCOc1ccc2cc(S(=O)(=O)N[C@H](CCC(=O)O)C(=O)O)ccc2c1
IC50 [1]: 239 µM

Cc1cc(/C=C2/C(=O)NC(=S)N(c3ccccc3)C2=O)c(C)n1-c1cc(C(=O)O)cc(C(=O)O)c1
IC50 [5]: 89 µM

C[C@@H](NS(=O)(=O)Cc1ccc([N+](=O)[O-])cc1)C(=O)N[C@H](C)P(=O)(O)C[C@H](CCC(=O)O)C(=O)O
IC50 [1]: 78 µM

CCCCOc1ccc2cc(S(=O)(=O)N[C@@H](CCC(=O)O)C(=O)O)ccc2c1
IC50 [6]: 710 µM

CCOc1ccc2[nH]c(SCC(=O)Nc3cc(C(=O)O)cc(C(=O)O)c3)nc2c1
Activity (Escherichia coli [9]): 95%
Activity (Escherichia coli [4]): 89%

COC(=O)CC[C@@H](NC(=O)c1ccc(/C=C2\SC(=S)NC2=O)cc1)C(=O)OC
MBC (Staphylococcus aureus): > 128 µg/mL
MIC (Staphylococcus aureus): > 128 µg/mL
MBC (Enterococcus faecalis): > 128 µg/mL
MIC (Enterococcus faecalis): > 128 µg/mL
MBC (Escherichia coli [3]): > 128 µg/mL
MIC (Escherichia coli [3]): > 128 µg/mL
MBC (Pseudomonas aeruginosa): > 128 µg/mL
MIC (Pseudomonas aeruginosa): > 128 µg/mL

O=C(CSc1nc2ccccc2s1)Nc1cc(C(=O)O)cc(C(=O)O)c1
Activity (Escherichia coli [9]): 94%
Activity (Escherichia coli [4]): 97%

COc1ccc(-c2ccc(/C=C3\SC(=S)N(C(CCC(=O)O)C(=O)O)C3=O)o2)c([N+](=O)[O-])c1 (stereo not drawn)
Activity (Escherichia coli [7]): 70%
Activity (Escherichia coli [9]): 70%
Activity (Escherichia coli [4]): 87%

O=C(O)c1cc(C(=O)O)cc(-c2ccc(/C=C3/SC(=S)N(c4ccc5c(c4)OCO5)C3=O)o2)c1
IC50 [10]: 270 µM
IC50 [5]: 32 µM

Cc1cc(C=C2C(=O)NC(=S)NC2=O)c(C)n1-c1cc(C(=O)O)cc(C(=O)O)c1
Activity (Escherichia coli [9]): 76%
Activity (Escherichia coli [4]): 99%

CCc1ccccc1N1C(=O)/C(=C\c2cc(C)n(-c3cc(C(=O)O)cc(C(=O)O)c3)c2C)C(=O)NC1=S
Activity (Escherichia coli [9]): 55%
Activity (Escherichia coli [4]): 92%

O=C(O)CC[C@@H](NS(=O)(=O)c1ccc2cc(OCCCc3ccccc3)ccc2c1)C(=O)O
IC50 [1]: 180 µM
